{"source": "patent US20200215016A1", "about": "“Ketone Bodies To Protect Tissues From Damage By Ionizing Radiation” (TDELTAS LIMITED, priority 2012, published 2020)", "key": {"[1]": {"assay": "Ketone ester blood metabolite levels / ketosis after administration", "assay_type": "in vivo", "conditions": "FIG. 5: 5 grams/kg dose, males", "description": "FIG. 5 is a graph illustrating ketone ester blood metabolite levels (5 grams/kg dose, males).\nTo maintain elevated blood ketone body concentrations over a 24 hour period, delayed release formulations can be used. The release of the (R)-3-hydroxybutyrate derivatives can be controlled by a number of formulation techniques. For example, techniques such as enteric coatings, film coatings, microencapsulation and the like can be used to retard release of the (R)-3-hydroxybutyrate derivatives as is known to those of ordinary skill in the art."}, "HOS cells": {"test_system": "HOS cells", "assay": "Protection of cultured osteoblasts against proton radiation (4 MeV): cell survival and DNA damage", "assay_type": "cell-based, human", "conditions": "ketone treatment prior to proton radiation (4 MeV)", "description": "FIG. 3 is a pair of graphs and images illustrating protection against proton radiation after administration of ketones. HOS cells were treated with ketone esters either pre- or post-proton radiation (4 MeV). […] The methods used in the studies of cultured cells were the same as previously reported in Miller A. C. et al., Int. J. of Radiation Biol. 1997, 72: 211-18. The ester composition used was the mono R 3 hydroxybutyryl-R-1,3 butanediol enantiomerically enriched in the 1 position of R-1,3 butanediol. Studies were performed using cultured osteoblasts exposed to gamma radiation with and without (R)-1,3-butanediol ester of (R)-3-hydroxybutyrate as described herein to determine the effect of ketone esters on radiation damage. FIG. 1 is a pair of graphs illustrating cellular radioprotection by ketone esters in which human cultured osteoblast cells were treated pre- or post […] gamma radiation (0.6 Gy/min) with a ketone ester. FIG. 2 illustrates chromosomal protection by ketone esters. FIG. 3 is a pair of graphs illustrating protection against proton radiation after administration of ketones in which human cultured osteoblast cells were treated pre- or post-proton radiation (4 MeV) with a ketone ester. FIG. 4 is a graph illustrating ketone ester stability at pH 7. FIG. 5 is a graph illustrating ketone ester blood metabolite levels. […]"}, "[2]": {"test_system": "Human osteoblast cells (HOS)", "assay": "Cellular radioprotection of cultured osteoblasts exposed to 60Co gamma radiation", "assay_type": "cell-based", "conditions": "ketone ester administered after radiation", "description": "FIG. 1 is a pair of graphs illustrating cellular radioprotection by ketone esters. Human osteoblast cells (HOS) were treated with ketone esters either pre-(left panel) or post-(right panel) ^60Co gamma radiation (0.6 Gy/min). The methods used in the studies of cultured cells were the same as previously reported in Miller A. C. et al., Int. J. of Radiation Biol. 1997, 72: 211-18. The ester composition used was the mono R 3 hydroxybutyryl-R-1,3 butanediol enantiomerically enriched in the 1 position of R-1,3 butanediol. Studies were performed using cultured osteoblasts exposed to gamma radiation with and without (R)-1,3-butanediol ester of (R)-3-hydroxybutyrate as described herein to determine the effect of ketone esters on radiation damage. FIG. 1 is a pair of graphs illustrating cellular radioprotection by ketone esters in which human cultured osteoblast cells were treated pre- or post […] gamma radiation (0.6 Gy/min) with a ketone ester. FIG. 2 illustrates chromosomal protection by ketone esters. FIG. 3 is a pair of graphs illustrating protection against proton radiation after administration of ketones in which human cultured osteoblast cells were treated pre- or post-proton radiation (4 MeV) with a ketone ester. FIG. 4 is a graph illustrating ketone ester stability at pH 7. FIG. 5 is a graph illustrating ketone ester blood metabolite levels. […]"}}}
{"smiles": "C[C@@H](O)CCOC(=O)C[C@@H](C)O", "note": "[ketone esters, mono R 3 hydroxybutyryl-R-1,3 butanediol]", "values": [{"measurement": "generation of ketosis", "setting": "[1]", "result": "sustained generation of ketosis over a period of hours"}, {"measurement": "cell survival", "setting": "HOS cells; FIG. 3 left graph", "result": "increased cell survival"}, {"measurement": "DNA damage", "setting": "HOS cells; FIG. 3 right graph", "result": "mitigated DNA damage"}, {"measurement": "cell salvage", "setting": "[2]", "result": "increases cell salvage"}]}
